Here are results for one compound from patent US20120152149A1, “USE OF 1,3-DIOLS AS BIOCIDES” (BASF SE, priority 2009, published 2012).

What all share (assay): Preservation stress test, example formulation 1 (standard emulsion O/W)
Common to all, as to assay type: cell-based
Conditions in all cases: 1% active substance

In one assay the test system is A. niger ATCC 16404. The procedure:
(§1) Preservation stress tests (PSTs) were carried out in order to determine the preserving activity of the diols. In the preservation stress test, this is simulated through artificial loadings with microorganisms. These can either be inoculated as mixed population or individually in mixtures independent of one another. The inoculated product samples are incubated under defined conditions and, after defined times, samples are taken in order to determine the germ loading. In the case of adequate preservation, the number of microorganisms should, depending on the type, either decrease or remain constant in order to satisfy the requirements specified, e.g. in Ph. Eur. 6.0. To investigate the preserving effect of the diols, application-typical amounts of the diols were incorporated into example formulations. […] [table] These example formulations were used to prepare various mixtures which each comprised 1% active substance or comprised water instead of the active substance as placebo mixtures. These mixtures were in each case inoculated with the test germs such that a germ loading of 10^5-10^6 CFU/g was present in the test mixture. The bacteria were either used individually for the inoculation or as a mixed culture. To determine the starting germ count, immediately after inoculation, an aliquot was taken, diluted in dilution medium (phosphate buffer, 0.07 molar pH 7.4 (+/−0.2), with 1% Tween 80+0.3% soya lecithin), and the surviving germ count was determined in the dilution stages 10^−1 to 10^−3. The inoculated product samples then incubated for a total of 28 d at 20-25° C. After 2 d, 7 d, 14 d and after 28 d, aliquots were taken and diluted in dilution medium (phosphate buffer, 0.07 molar pH 7.4 (+/−0.2), with 1% Tween 80+0.3% soya lecithin). The surviving germ counts were determined in the dilution stages 10^−1 to 10^−4. The reference point taken for determining the reduction in germ count was the respective initial value of the sample. The results were given as logarithmic reductions.

For a further assay, the system named is C. albicans ATCC 10231. The procedure: as §1
A further assay concerns E. coli ATCC 10536. The procedure:
as §1

In the next assay the test system is P. aeruginosa ATCC 15442. The procedure: as §1
A further assay has as its system S. aureus ATCC 6538. The procedure:
as §1

Structures are written as SMILES.

Take `CCCCC(O)CO` (centres unmarked) [1,2-Hexanediol, 1,2-hexanediol]: the “Microbicidal activity given as logarithmic reduction in germ count” value with A. niger ATCC 16404 (48 h), in the assay with A. niger ATCC 16404 (7 d), in the assay with A. niger ATCC 16404 (14 d), in the assay on A. niger ATCC 16404 (28 d), in the assay with C. albicans ATCC 10231 (48 h) and in the assay on C. albicans ATCC 10231 (7 d) was 0 log. Red each time. The “Microbicidal activity given as logarithmic reduction in germ count” value in the assay on C. albicans ATCC 10231 (14 d) was 0 log. Red; in the assay with C. albicans ATCC 10231 (28 d) it was 1 log. Red; with E. coli ATCC 10536 (48 h), 0 log. Red; in the assay on E. coli ATCC 10536 (7 d) it was 1 log. Red; with E. coli ATCC 10536 (14 d), 2 log. Red; in the assay with E. coli ATCC 10536 (28 d) it was “≧3 log. Red”. The “Microbicidal activity given as logarithmic reduction in germ count” value in the assay with P. aeruginosa ATCC 15442 (48 h) is on record as 0 log. Red; in the assay on P. aeruginosa ATCC 15442 (7 d), 1 log. Red; in the assay with P. aeruginosa ATCC 15442 (14 d), 1 log. Red; in the assay on P. aeruginosa ATCC 15442 (28 d), “≧3 log. Red”; in the assay with S. aureus ATCC 6538 (48 h), 1 log. Red; in the assay on S. aureus ATCC 6538 (7 d), 1 log. Red. Further, the “Microbicidal activity given as logarithmic reduction in germ count” value with S. aureus ATCC 6538 (14 d) was “≧3 log. Red”; in the assay on S. aureus ATCC 6538 (28 d), 5 log. Red.
